For one assay, the target named is ROCK1 (Homo sapiens (Human), UniProt Q13464). Description: ROCK assay (LABCHIP peptide phosphorylation), ROCK1. The assay is classed as biochemical. Conditions: 5 μM ATP, 1.5 μM peptide substrate; read-out: ROCK1 IC50.
In another assay the target is ROCK2 (Homo sapiens (Human), UniProt O75116). Kind of assay: ROCK assay (LABCHIP peptide phosphorylation), ROCK2. The assay is classed as biochemical. Conditions: 5 μM ATP, 1.5 μM peptide substrate.

Structures are written as SMILES.

This is an account of results in patent publication US9926282B2, “Phthalazinones and isoquinolinones as rock inhibitors” (BRISTOL-MYERS SQUIBB COMPANY, priority 2013, dated 2018).

Chain of ROCK2 (O75116 whole entry, species assumed): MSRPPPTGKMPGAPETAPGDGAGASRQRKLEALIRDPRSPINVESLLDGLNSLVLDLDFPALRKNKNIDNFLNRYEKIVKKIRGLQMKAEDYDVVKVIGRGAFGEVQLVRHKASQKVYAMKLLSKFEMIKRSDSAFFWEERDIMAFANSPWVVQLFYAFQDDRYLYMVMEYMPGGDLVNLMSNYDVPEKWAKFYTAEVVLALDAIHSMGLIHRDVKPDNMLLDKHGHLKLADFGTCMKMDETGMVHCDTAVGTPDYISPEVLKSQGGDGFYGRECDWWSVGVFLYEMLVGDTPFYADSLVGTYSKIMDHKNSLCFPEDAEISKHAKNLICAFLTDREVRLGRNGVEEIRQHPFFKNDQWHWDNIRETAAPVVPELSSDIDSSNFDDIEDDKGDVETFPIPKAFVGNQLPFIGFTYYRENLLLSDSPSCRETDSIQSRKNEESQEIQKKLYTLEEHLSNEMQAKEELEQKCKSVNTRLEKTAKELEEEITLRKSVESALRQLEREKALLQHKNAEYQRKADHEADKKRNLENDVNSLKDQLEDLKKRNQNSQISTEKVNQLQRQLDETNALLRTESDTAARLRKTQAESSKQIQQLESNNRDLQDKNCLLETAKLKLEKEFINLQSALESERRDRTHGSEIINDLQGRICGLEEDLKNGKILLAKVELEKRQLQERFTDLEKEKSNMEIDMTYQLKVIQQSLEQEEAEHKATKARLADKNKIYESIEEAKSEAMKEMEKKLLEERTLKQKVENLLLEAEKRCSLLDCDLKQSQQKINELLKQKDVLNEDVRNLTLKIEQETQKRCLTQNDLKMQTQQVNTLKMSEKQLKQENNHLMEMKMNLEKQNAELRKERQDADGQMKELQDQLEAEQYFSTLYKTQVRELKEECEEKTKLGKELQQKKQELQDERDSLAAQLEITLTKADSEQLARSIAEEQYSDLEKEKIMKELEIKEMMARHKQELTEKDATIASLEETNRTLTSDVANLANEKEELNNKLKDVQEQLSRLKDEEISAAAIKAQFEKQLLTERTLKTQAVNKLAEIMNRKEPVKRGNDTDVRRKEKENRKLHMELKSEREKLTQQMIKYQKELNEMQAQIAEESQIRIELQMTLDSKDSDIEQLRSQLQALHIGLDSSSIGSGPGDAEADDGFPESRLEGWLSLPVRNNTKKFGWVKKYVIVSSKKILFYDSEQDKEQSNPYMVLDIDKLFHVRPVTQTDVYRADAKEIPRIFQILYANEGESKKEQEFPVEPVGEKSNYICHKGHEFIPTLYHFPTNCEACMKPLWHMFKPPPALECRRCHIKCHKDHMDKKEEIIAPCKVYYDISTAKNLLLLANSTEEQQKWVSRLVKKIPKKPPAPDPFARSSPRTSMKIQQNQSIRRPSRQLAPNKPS
Chain of ROCK1 (Q13464 whole entry, species assumed): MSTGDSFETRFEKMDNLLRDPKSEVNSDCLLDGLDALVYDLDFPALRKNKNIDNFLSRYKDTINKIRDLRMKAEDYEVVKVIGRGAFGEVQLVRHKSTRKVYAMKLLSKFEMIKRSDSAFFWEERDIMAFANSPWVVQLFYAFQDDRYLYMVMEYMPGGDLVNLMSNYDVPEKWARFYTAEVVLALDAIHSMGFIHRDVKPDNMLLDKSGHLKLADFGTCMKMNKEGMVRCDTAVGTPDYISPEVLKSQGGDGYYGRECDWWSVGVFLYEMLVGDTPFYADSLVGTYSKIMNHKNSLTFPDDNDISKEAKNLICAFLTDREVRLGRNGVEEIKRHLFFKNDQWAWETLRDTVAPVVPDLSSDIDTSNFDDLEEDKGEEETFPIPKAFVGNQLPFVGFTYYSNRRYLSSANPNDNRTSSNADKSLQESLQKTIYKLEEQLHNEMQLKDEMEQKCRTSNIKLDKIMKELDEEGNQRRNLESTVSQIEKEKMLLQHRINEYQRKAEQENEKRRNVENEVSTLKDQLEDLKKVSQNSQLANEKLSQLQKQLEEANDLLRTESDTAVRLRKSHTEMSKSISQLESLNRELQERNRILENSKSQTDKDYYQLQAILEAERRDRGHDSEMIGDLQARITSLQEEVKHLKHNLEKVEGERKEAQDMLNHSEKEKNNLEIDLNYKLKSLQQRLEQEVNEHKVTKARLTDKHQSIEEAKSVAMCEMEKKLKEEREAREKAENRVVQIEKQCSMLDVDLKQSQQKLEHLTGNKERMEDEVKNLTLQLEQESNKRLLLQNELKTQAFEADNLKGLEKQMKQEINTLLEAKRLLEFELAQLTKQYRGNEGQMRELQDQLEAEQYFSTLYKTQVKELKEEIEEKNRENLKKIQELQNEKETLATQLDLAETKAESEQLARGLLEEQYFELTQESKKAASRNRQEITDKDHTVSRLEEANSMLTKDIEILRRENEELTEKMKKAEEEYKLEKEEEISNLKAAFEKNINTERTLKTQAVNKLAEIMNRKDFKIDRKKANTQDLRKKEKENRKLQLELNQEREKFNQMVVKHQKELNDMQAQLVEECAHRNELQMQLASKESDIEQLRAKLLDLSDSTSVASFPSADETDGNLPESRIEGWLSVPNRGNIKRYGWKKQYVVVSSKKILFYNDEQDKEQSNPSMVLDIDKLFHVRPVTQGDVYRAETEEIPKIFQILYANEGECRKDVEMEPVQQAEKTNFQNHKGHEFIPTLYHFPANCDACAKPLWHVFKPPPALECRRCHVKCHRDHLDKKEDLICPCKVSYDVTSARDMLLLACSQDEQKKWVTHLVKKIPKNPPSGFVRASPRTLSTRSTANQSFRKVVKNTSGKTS

As for `Cc1cc(NC(=O)c2nn(CC3CCN(C(=O)OCc4ccccc4)CC3)c3ccccc23)ccc1-c1n[nH]c(=O)c2ccccc12` [Example 307, benzyl 4-[(3-{[3-methyl-4-(4-oxo-3,4-dihydrophthalazin-1-yl)phenyl]carbamoyl}-1H-indazol-1-yl)methyl] piperidine-1-carboxylate], the figures for the IC50 at ROCK1 and against ROCK2 were 101 to 1000 nM and 0.1 to 100 nM, respectively.
`Cn1ccnc1C(=O)Nc1ccc(-c2n[nH]c(=O)c3ccccc23)cc1` [Example 52, 1-methyl-N-[4-(4-oxo-3,4-dihydrophthalazin-1-yl)phenyl]-1H-imidazole-2-carboxamide]: the IC50 at ROCK1 and against ROCK2 was 101 to 1000 nM throughout.
Turning to `COCCN1CCC(C(=O)Nc2ccc(-c3n[nH]c(=O)c4ccccc34)cc2)C1` (stereo not drawn) [Example 57, 1-(2-methoxyethyl)-N-[4-(4-oxo-3,4-dihydrophthalazin-1-yl)phenyl]pyrrolidine-3-carboxamide], the IC50 on ROCK1 and at ROCK2 was 1000 to 50000 nM each time.
In the case of `O=C(Nc1ccc(-c2n[nH]c(=O)c3ccccc23)cc1)c1cn2c(n1)CCCC2` [Example 134, N-[4-(4-oxo-3,4-dihydrophthalazin-1-yl)phenyl]-5H,6H,7H,8H-imidazo[1,2-a]pyridine-2-carboxamide], the IC50 lay within 101 to 1000 nM on ROCK1 and 0.1 to 100 nM against ROCK2.
With `CN1CCC(Oc2ccc3c(c2)N(C(=O)Cc2ccc(-c4n[nH]c(=O)c5ccccc45)cc2)CC3)CC1` [Example 282, 4-[4-(2-{6-[(1-methylpiperidin-4-yl)oxy]-2,3-dihydro-1H-indol-1-yl}-2-oxoethyl)phenyl]-1,2-dihydrophthalazin-1-one], the IC50 at ROCK1 lay within 101 to 1000 nM; against ROCK2, 0.1 to 100 nM.
For `Cn1c(C(=O)Nc2ccc(-c3c[nH]c(=O)c4ccccc34)cc2)cc2ccccc21` [Example 248, 1-Methyl-N-(4-(1-oxo-1,2-dihydroisoquinolin-4-yl)phenyl)-1H-indole-2-carboxamide], the IC50 fell in the range of 101 to 1000 nM on ROCK1 and 0.1 to 100 nM against ROCK2.
Consider `COc1ccc2cc(C(=O)Nc3ccc(-c4n[nH]c(=O)c5ccccc45)cc3)n(C)c2c1` [Example 127, 6-methoxy-1-methyl-N-[4-(4-oxo-3,4-dihydrophthalazin-1-yl)phenyl]-1H-indole-2-carboxamide], for which the 50% inhibitory concentration (IC50) on ROCK1 and on ROCK2 was 0.1 to 100 nM each time.
As to `CC(C)(O)Cn1nc(C(=O)Nc2ccc(-c3n[nH]c(=O)c4ccccc34)c(Cl)c2)c2ccccc21` [Example 315, N-[3-chloro-4-(4-oxo-3,4-dihydrophthalazin-1-yl)phenyl]-1-(2-hydroxy-2-methylpropyl)-1H-indazole-3-carboxamide], the IC50 at ROCK1 and at ROCK2 was 0.1 to 100 nM each time.
Regarding `O=C(Nc1ccc(-c2n[nH]c(=O)c3ccccc23)cc1)c1cnc2ccccn12` [Example 104, N-[4-(4-oxo-3,4-dihydrophthalazin-1-yl)phenyl]imidazo[1,2-a]pyridine-3-carboxamide], the concentration for half-maximal inhibition (IC50) at ROCK1 and against ROCK2 was 0.1 to 100 nM in each case.
Consider `Cc1cc(CC(=O)N2Cc3ccccc3C2)ccc1-c1c[nH]c(=O)c2ccccc12` [Example 263, 4-(4-(2-(Isoindolin-2-yl)-2-oxoethyl)-2-methylphenyl)isoquinolin-1(2H)-one], for which the values for the half-inhibitory concentration (IC50) on ROCK1 and on ROCK2 were 101 to 1000 nM and 0.1 to 100 nM, respectively.
`O=c1[nH]nc(-c2ccc(Nc3nncc4ccccc34)cc2)c2ccccc12` [Example 85, 4-(4-(Phthalazin-1-ylamino)phenyl)phthalazin-1(2H)-one]: the IC50 at ROCK1 and on ROCK2 was 0.1 to 100 nM throughout.
Consider `CCCc1c(C(=O)Nc2ccc(-c3n[nH]c(=O)c4ccccc34)cc2)nnn1-c1ccccc1` [Example 231, N-[4-(4-oxo-3,4-dihydrophthalazin-1-yl)phenyl]-1-phenyl-5-propyl-1H-1,2,3-triazole-4-carboxamide], for which the 50% inhibitory concentration (IC50) fell in the range of 101 to 1000 nM at ROCK1 and 0.1 to 100 nM against ROCK2.
For `CC(=O)N1CC(Cn2nc(C(=O)Nc3ccc(-c4n[nH]c(=O)c5ccccc45)cc3)c3ccccc32)C1` [Example 339, 1-((1-Acetylazetidin-3-yl)methyl)-N-(4-(4-oxo-3,4-dihydrophthalazin-1-yl)phenyl)-1H-indazole-3-carboxamide], the IC50 at ROCK1 and at ROCK2 was 0.1 to 100 nM in each case.
In the case of `COc1ccc2[nH]c(C(=O)Nc3ccc(-c4n[nH]c(=O)c5ccccc45)cc3)cc2c1` [Example 125, 5-methoxy-N-[4-(4-oxo-3,4-dihydrophthalazin-1-yl)phenyl]-1H-indole-2-carboxamide], the 50% inhibitory concentration (IC50) at ROCK1 and at ROCK2 was 0.1 to 100 nM in each case.
For `Cc1cc(NC(=O)c2onc3ccccc23)ccc1-c1n[nH]c(=O)c2ccccc12` [Example 306, N-[3-methyl-4-(4-oxo-3,4-dihydrophthalazin-1-yl)phenyl]-2,1-benzoxazole-3-carboxamide], the results for the concentration for half-maximal inhibition (IC50) at ROCK1 and on ROCK2 were 101 to 1000 nM and 0.1 to 100 nM, respectively.
The like results for `O=C(Cc1ccc(-c2n[nH]c(=O)c3ccccc23)cc1)N1CCc2cc(OC(F)(F)F)cc(Br)c21` [Example 253, 4-(4-(2-(7-Bromo-5-(trifluoromethoxy)indolin-1-yl)-2-oxoethyl)phenyl)phthalazin-1(2H)-one] were, in that order, 1000 to 50000 nM and 101 to 1000 nM.
Take `COc1ccc2c(c1)N(C(=O)Nc1ccc(-c3c[nH]c(=O)c4ccccc34)cc1)CC2` [Example 80, 6-Methoxy-N-(4-(1-oxo-1,2-dihydroisoquinolin-4-yl)phenyl)indoline-1-carboxamide]: the IC50 at ROCK1 and against ROCK2 was 0.1 to 100 nM each time.
With `CC(C)(O)Cn1cc(C(=O)Nc2ccc(-c3n[nH]c(=O)c4ccccc34)cc2)c2cccnc21` [Example 169, 1-(2-hydroxy-2-methylpropyl)-N-[4-(4-oxo-3,4-dihydrophthalazin-1-yl)phenyl]-1H-pyrrolo[2,3-b]pyridine-3-carboxamide], the 50% inhibitory concentration (IC50) at ROCK1 and against ROCK2 was 0.1 to 100 nM in each case.
As for `CC(C)(O)Cn1cc(C(=O)Nc2ccc(-c3n[nH]c(=O)c4ccccc34)cc2)cn1` [Example 377, 1-(2-Hydroxy-2-methylpropyl)-N-(4-(4-oxo-3,4-dihydrophthalazin-1-yl)phenyl)-1H-pyrazole-4-carboxamide], the values for the IC50 at ROCK1 and at ROCK2 were 1000 to 50000 nM and 0.1 to 100 nM, respectively.
Consider `O=C(Nc1ccc(-c2n[nH]c(=O)c3ccccc23)cc1)c1cnn(-c2cccc(Cl)c2)c1` [Example 198, 1-(3-chlorophenyl)-N-[4-(4-oxo-3,4-dihydrophthalazin-1-yl)phenyl]-1H-pyrazole-4-carboxamide], for which the IC50 on ROCK1 and at ROCK2 was 0.1 to 100 nM throughout.
As for `O=C(Nc1ccc(-c2c[nH]c(=O)c3ccccc23)cc1)c1nc2c(s1)CCCC2` [Example 246, N-(4-(1-Oxo-1,2-dihydroisoquinolin-4-yl)phenyl)-4,5,6,7-tetrahydrobenzo[d]thiazole-2-carboxamide], the half-maximal inhibitory concentration (IC50) at ROCK1 and on ROCK2 was 0.1 to 100 nM throughout.
In the case of `O=C(Cc1ccc(-c2n[nH]c(=O)c3ccccc23)cc1)N1CCN(c2ncccn2)CC1` [Example 15, 4-(4-{2-oxo-2-[4-(pyrimidin-2-yl)piperazin-1-yl]ethyl}phenyl)-1,2-dihydrophthalazin-1-one], the IC50 on ROCK1 and at ROCK2 was 1000 to 50000 nM each time.
Take `Cc1nn(-c2ccccc2)c(C)c1C(=O)Nc1ccc(-c2n[nH]c(=O)c3ccccc23)cc1` [Example 219, 3,5-dimethyl-N-[4-(4-oxo-3,4-dihydrophthalazin-1-yl)phenyl]-1-phenyl-1H-pyrazole-4-carboxamide]: the 50% inhibitory concentration (IC50) at ROCK1 and at ROCK2 was 0.1 to 100 nM throughout.
For the compound `CC(=O)N1CC(Cn2nc(C(=O)Nc3ccc(-c4n[nH]c(=O)c5ccccc45)c(Cl)c3)c3ccccc32)C1` [Example 329, 1-((1-Acetylazetidin-3-yl)methyl)-N-(3-chloro-4-(4-oxo-3,4-dihydrophthalazin-1-yl)phenyl)-1H-indazole-3-carboxamide], the IC50 on ROCK1 and at ROCK2 was 0.1 to 100 nM each time.
Turning to `Cc1cn2cc(C(=O)Nc3ccc(-c4n[nH]c(=O)c5ccccc45)cc3)nc2cn1` [Example 121, 6-methyl-N-[4-(4-oxo-3,4-dihydrophthalazin-1-yl)phenyl]imidazo[1,2-a]pyrazine-2-carboxamide], the half-inhibitory concentration (IC50) is 101 to 1000 nM at ROCK1 and 0.1 to 100 nM on ROCK2.
The matching figures for `CC1(C)CN(C(=O)Cc2ccc(-c3n[nH]c(=O)c4ccccc34)cc2)c2ccccc21` [Example 39, 4-{4-[2-(3,3-dimethyl-2,3-dihydro-1H-indol-1-yl)-2-oxoethyl]phenyl}-1,2-dihydrophthalazin-1-one]: 101 to 1000 nM and 0.1 to 100 nM.
Regarding `COc1cc(-c2n[nH]c(=O)c3ccccc23)ccc1NC(=O)c1nn(CC2CCOC2)c2ccccc12` (stereo not drawn) [Example 352, N-(2-Methoxy-4-(4-oxo-3,4-dihydrophthalazin-1-yl)phenyl)-1-((tetrahydrofuran-3-yl)methyl)-1H-indazole-3-carboxamide], the half-inhibitory concentration (IC50) was in the range of 1000 to 50000 nM at ROCK1 and 101 to 1000 nM on ROCK2.
In the case of `CC(C)(C)c1cc(NC(=O)Cc2ccc(-c3n[nH]c(=O)c4ccccc34)cc2)no1` [Example 278, N-(5-tert-butyl-1,2-oxazol-3-yl)-2-[4-(4-oxo-3,4-dihydrophthalazin-1-yl)phenyl]acetamide], the figures for the IC50 on ROCK1 and against ROCK2 were 101 to 1000 nM and 0.1 to 100 nM, respectively.
Consider `COc1ccc2c(c1)CN(C(=O)Oc1ccc(-c3n[nH]c(=O)c4ccccc34)cc1)C2` [Example 70, 4-(4-Oxo-3,4-dihydrophthalazin-1-yl)phenyl 5-methoxyisoindoline-2-carboxylate], for which the IC50 on ROCK1 was 1000 to 50000 nM; on ROCK2 it was 0.1 to 100 nM.
In the case of `CC(C)(O)COc1ccc2c(c1)N(C(=O)Cc1ccc(-c3n[nH]c(=O)c4ccccc34)cc1)CC2` [Example 265, 4-(4-(2-(6-(2-Hydroxy-2-methylpropoxy)indolin-1-yl)-2-oxoethyl)phenyl)phthalazin-1(2H)-one], the half-maximal inhibitory concentration (IC50) at ROCK1 and on ROCK2 was 0.1 to 100 nM each time.

Usually IC50 stands for the concentration that gives 50% inhibition.
